# Experimental data taken from US10105377B2, “Compounds and nail polish” (Anacor Pharmaceuticals, Inc., priority 2014, dated 2018).
# Experiments:
# [1] = Tavaborole penetration of fingernails with one, two, or four layers of nail polish (vertical diffusion cells); format: in vitro ADME, human; conditions: from Tavaborole Topical Solution, 5%; through up to four layers of nail polish
# From the text: Female human ex vivo, cadaver fingernails from eight donors were cleaned of any underlying tissue, rinsed with water to remove any additional materials from the surface and then characterized for width, length, thickness, and weight. Four different treatment groups were used to evaluate different nail polish application practices. In the first treatment group, one nail from each of seven donors (randomized to treatment group) was painted according to the first nail polish application practice. In the second treatment group, a second nail from each of seven donors (randomized to treatment group) was painted according to the second nail polish application practice. In the third treatment group, a third nail from each of seven donors (randomized to treatment group) was painted according to the third nail polish application practice. In the fourth treatment group, a fourth nail from each of seven donors (randomized to treatment group) was painted according to the fourth nail polish application practice. […]
# Vertical diffusion cells were filled with pre-warmed receiving medium of phosphate buffered saline (pH 7.4) and a small stir bar, and were allowed to equilibrate to 32±1.0° C. The cell volumes were determined prior to initiating the study. […] Prior to dosing, each cell was evaluated for leaks. […]
# [2] = ex vivo human cadaver fingernails; relative to ciclopirox; cited from earlier work
compound,measurement,setting,value
"OB1OCc2cc(F)ccc21 [tavaborole, 5-fluoro-1,3-dihydro-1-hydroxy-2,1-benzoxaborole]",penetration through layers of nail polish (in words),[1],able to penetrate
same,quantity through the nail compared with ciclopirox,[2],250 fold
